For 56 molecules, IC50 results are on record in patent US20110065916A1, “METHOD OF MAKING IMIDAZOAZEPINONE COMPOUNDS” (priority 2007, published 2011).

The assay has as its system human T-bet. The experiment in a line: HEKT-bet-luc assay (normalized HEKT-bet IC50). It counts as cell-based. The following applies: compound 24 hours, normalized to reference ER-819544. As to the method:
HEKT-bet-luc assay: This assay measures a T-bet dependent reporter (luciferase) activity in engineered HEK cells that express a human T-bet and a T-box responsive element driving luciferase reporter. HEKT-bet cells were plated at 2×10^4/well in 96-well plate and compound was added into cell culture for 24 hours. Luciferase activity was measured by adding 50 μl of Steady-Glo reagent (Promega) and samples were read in Victor V reader (PerkinElmer). The activity of compound was determined by comparing compound treated samples to non-compound treated vehicle controls. The IC50 values were calculated utilizing a maximum value corresponding to the amount of luciferase in the absence of a test compound and a minimum value corresponding to a test compound value obtained at maximum inhibition.
Determination of Normalized HEKT-bet IC50 values: Compounds were assayed in microtiter plates. Each plate included a reference compound which was ER-819544. The un-normalized IC50 value for a particular compound was divided by the IC50 value determined for the reference compound in the same microtiter plate to provide a relative potency value. The relative potency value was then multiplied by the established potency of the reference compound to provide the normalized HEKT-bet IC50 value. […] The IC50 values provided herein were obtained using this normalization method.

[1] abbreviates: Homo sapiens, HEK293, 24 h, Table 4, engineered HEK cells.

Each structure is given as a SMILES string.

What is called IC50 is the midpoint of a concentration-inhibition curve. A low value points to inhibition by little substance. Molecule `COc1cc2c(c(OC)c1)[C@H](C)C=C1N(C2)C(=O)N(C[C@@H](O)CO)C12CCN(Cc1cc(C)cc(C)c1)CC2` (single isomer, unassigned) [ER-819789] yielded an IC50 under setting [1] of 170 nM.
`COc1cc2c(c(OC)c1)[C@@H](C)C=C1N(C2)C(=O)N(C[C@@H](O)CO)C12CCN(Cc1cc(C)cc(C)c1)CC2` (single isomer, unassigned) [ER-819788] registered an IC50 under setting [1] of 30 nM.
The same measure, in the same setting: the value for `CCN1C(=O)N2Cc3cc(OC)cc(OC)c3[C@@H](C)C=C2C12CCN(Cc1ccc(F)c(OC)c1)CC2` [ER-819936] was 120 nM; that for `CCN1C(=O)N2Cc3cc(OC)cc(OC)c3[C@@H](C)C=C2C12CCN(Cc1ccnn1C)CC2` [ER-819958-01] was 79 nM; that for `CCN1C(=O)N2Cc3cc(OC)cc(OC)c3[C@@H](C)C=C2C12CCN(Cc1cccc3c1ccn3C)CC2` [ER-811349-01] was 43 nM.
On the same count and under the same terms, the value for `CCN1C(=O)N2Cc3cc(OC)cc(OC)c3[C@@H](C)C=C2C12CCN(Cc1ccc3occc3c1)CC2` [ER-811304-01] was 100 nM; that for `C=C(C)CN1C(=O)N2Cc3cc(OC)cc(OC)c3[C@H](C)C=C2C12CCN(Cc1cc(C)cc(C)c1)CC2` (single isomer, unassigned) [ER-820007] was 1260 nM; that for `CCN1C(=O)N2Cc3cc(OC)cc(OC)c3[C@@H](C)C=C2C12CCN(Cc1c(-c3ccc(F)cc3)nc3ncccn13)CC2` [ER-811346-02] was 200 nM.
The same measure, in the same setting: the value for `CCN1C(=O)N2Cc3cc(OC)cc(OC)c3[C@@H](C)C=C2C12CCN(Cc1cccn1C(C)C)CC2` [ER-811358-01] was 220 nM; that for `CCN1C(=O)N2Cc3cc(OC)cc(OC)c3[C@@H](C)C=C2C12CCN(Cc1cc(C)nn1C)CC2` [ER-819973-01] was 30 nM.
Molecule `CCN1C(=O)N2Cc3cc(OC)cc(OC)c3[C@H](C)C=C2C12CCN(Cc1cc(C)c(F)c(C)c1)CC2` [ER-819943] yielded a 50% inhibitory concentration (IC50) under setting [1] above 10000 nM.
The same measure, in the same setting: the value for `CCN1C(=O)N2Cc3cc(OC)cc(OC)c3[C@@H](C)C=C2C12CCN(Cc1cc(C)cc(C)c1)CC2` [ER-819762] was 40 nM.
The same measure, in the same setting: the value for `CCN1C(=O)N2Cc3cc(OC)cc(OC)c3[C@H](C)C=C2C12CCN(Cc1cc(C)cc(C)c1)CC2` [ER-819763] was 550 nM; that for `CCN1C(=O)N2Cc3cc(OC)cc(OC)c3[C@@H](C)C=C2C12CCN(Cc1nc3ccccc3[nH]1)CC2` [ER-819965-01] was 130 nM.
With `CCN1C(=O)N2Cc3cc(OC)cc(OC)c3[C@@H](C)C=C2C12CCN(Cc1cnn(C)c1C)CC2` [ER-819976-01], the IC50 under setting [1] was 23 nM.
In the case of `CCN1C(=O)N2Cc3cc(OC)cc(OC)c3[C@@H](C)C=C2C12CCN(Cc1ccn(C)c1)CC2` [ER-819961-01], 96 nM corresponded to half-maximal inhibition under setting [1] (IC50).
In turn, `CCN1C(=O)N2Cc3cc(OC)cc(OC)c3[C@@H](C)C=C2C12CCN(Cc1cc3nccnc3s1)CC2` [ER-811301-01] yielded an IC50 under setting [1] of 260 nM.
Still for that read-out and setting: the value for `CCN1C(=O)N2Cc3cc(OC)cc(OC)c3[C@@H](C)C=C2C12CCN(Cc1nc3ccccc3o1)CC2` [ER-819981-01] was 200 nM.
`CCN1C(=O)N2Cc3cc(OC)cc(OC)c3[C@H](C)C=C2C12CCN(Cc1ccc(F)c(OC)c1)CC2` [ER-819948] gave a concentration for half-maximal inhibition (IC50) under setting [1] above 10000 nM.
The same measure, in the same setting: to `CCN1C(=O)N2Cc3cc(OC)cc(OC)c3[C@@H](C)C=C2C12CCN(Cc1cccn1-c1cc(C)on1)CC2` [ER-820017-01] belongs 69 nM.
On the same count and under the same terms, to `COc1cc2c(c(OC)c1)[C@@H](C)C=C1N(C2)C(=O)N(CCO)C12CCN(Cc1cc(C)cc(C)c1)CC2` (single isomer, unassigned) [ER-819786] belongs 30 nM; to `CCN1C(=O)N2Cc3cc(OC)cc(OC)c3[C@@H](C)C=C2C12CCN(Cc1nccn1OCc1ccccc1)CC2` [ER-820009-00], 110 nM.
The same measure, in the same setting: the value for `CCN1C(=O)N2Cc3cc(OC)cc(OC)c3[C@@H](C)C=C2C12CCN(Cc1cccc3nsnc13)CC2` [ER-811332-01] was 67 nM; that for `CCN1C(=O)N2Cc3cc(OC)cc(OC)c3[C@H](C)C=C2C12CCN(Cc1c(F)ccc(C)c1F)CC2` [ER-819946] was 2970 nM; that for `CCN1C(=O)N2Cc3cc(OC)cc(OC)c3[C@@H](C)C=C2C12CCN(Cc1csnn1)CC2` [ER-811279-01] was 210 nM.
`CCN1C(=O)N2Cc3cc(OC)cc(OC)c3[C@@H](C)C=C2C12CCN(Cc1ccc(/C=C/c3ccccc3)cc1)CC2` [ER-819814-01] gave a concentration for half-maximal inhibition (IC50) under setting [1] of 300 nM.
`CCN1C(=O)N2Cc3cc(OC)cc(OC)c3[C@@H](C)C=C2C12CCN(Cc1cc(OC)c(F)c(OC)c1)CC2` [ER-824214-00] had an IC50 under setting [1] of 29 nM.
Turning to `CCN1C(=O)N2Cc3cc(OC)cc(OC)c3[C@@H](C)C=C2C12CCN(Cc1cnoc1C)CC2` [ER-819810-01], the half-maximal inhibitory concentration (IC50) under setting [1] amounted to 12 nM.
As to `C=C(C)CN1C(=O)N2Cc3cc(OC)cc(OC)c3[C@@H](C)C=C2C12CCN(Cc1cc(C)cc(C)c1)CC2` (single isomer, unassigned) [ER-820006], the midpoint of inhibition under setting [1], the IC50, lay at 60 nM.
On to `CCN1C(=O)N2Cc3cc(OC)cc(OC)c3[C@@H](C)C=C2C12CCN(Cc1ccc3nn[nH]c3c1)CC2` [ER-819820-01], for which inhibition under setting [1] was half-maximal at 90 nM (IC50).
Same read-out and setting: the value for `CCN1C(=O)N2Cc3cc(OC)cc(OC)c3[C@@H](C)C=C2C12CCN(Cc1cccc(-n3cccn3)c1)CC2` [ER-811317-01] was 74 nM; that for `CCN1C(=O)N2Cc3cc(OC)cc(OC)c3[C@@H](C)C=C2C12CCN(Cc1ccc3[nH]ccc3c1)CC2` [ER-819966-01] was 48 nM.
Take `CCN1C(=O)N2Cc3cc(OC)cc(OC)c3[C@@H](C)C=C2C12CCN(Cc1cccc3cccnc13)CC2` [ER-819955-01]: under setting [1], the IC50 was 20 nM.
`CCN1C(=O)N2Cc3cc(OC)cc(OC)c3[C@@H](C)C=C2C12CCN(Cc1cc3ccccc3o1)CC2` [ER-811308-01] gave an IC50 under setting [1] of 56 nM.
With `CCN1C(=O)N2Cc3cc(OC)cc(OC)c3[C@@H](C)C=C2C12CCN(Cc1cccn1CCC#N)CC2` [ER-820008-00], half-maximal inhibition under setting [1] (IC50) required 240 nM.
For `CCN1C(=O)N2Cc3cc(OC)cc(OC)c3[C@@H](C)C=C2C12CCN(Cc1ccc(F)c(OC(F)(F)F)c1)CC2` [ER-819933], the concentration for half-maximal inhibition (IC50) under setting [1] is 1150 nM.
Same read-out and setting: the value for `CCN1C(=O)N2Cc3cc(OC)cc(OC)c3[C@@H](C)C=C2C12CCN(Cc1cccnc1OC)CC2` [ER-819833-01] was 47 nM; that for `CCN1C(=O)N2Cc3cc(OC)cc(OC)c3[C@@H](C)C=C2C12CCN(Cc1cc(C)ccc1F)CC2` [ER-819935] was 130 nM; that for `CCN1C(=O)N2Cc3cc(OC)cc(OC)c3[C@@H](C)C=C2C12CCN(Cc1nc(OC)cc(OC)n1)CC2` [ER-820004-01] was 67 nM.
As for `CCN1C(=O)N2Cc3cc(OC)cc(OC)c3[C@@H](C)C=C2C12CCN(Cc1cccn1-c1cccnc1)CC2` [ER-819979-01], the midpoint of inhibition under setting [1], the IC50, lay at 120 nM.
Still for that read-out and setting: the value for `CCN1C(=O)N2Cc3cc(OC)cc(OC)c3[C@@H](C)C=C2C12CCN(Cc1cccn1-c1ccccc1C(F)(F)F)CC2` [ER-819849-01] was 220 nM; that for `CCN1C(=O)N2Cc3cc(OC)cc(OC)c3[C@@H](C)C=C2C12CCN(Cc1cn(C)nc1C)CC2` [ER-819971-01] was 34 nM.
Where the note is “Table 4, engineered HEK cells”, `CCN1C(=O)N2Cc3cc(OC)cc(OC)c3[C@@H](C)C=C2C12CCN(Cc1nccn1C)CC2` [ER-819957-01] gave an IC50 of 55 nM.
The molecule `CCN1C(=O)N2Cc3cc(OC)cc(OC)c3[C@H](C)C=C2C12CCN(Cc1cccn1C)CC2` [ER-819925] showed a half-maximal inhibitory concentration (IC50) under setting [1] of 320 nM.
In turn, `CCN1C(=O)N2Cc3cc(OC)cc(OC)c3[C@@H](C)C=C2C12CCN(Cc1c(C)nc3sccn13)CC2` [ER-811352-02] yielded an IC50 under setting [1] of 13 nM.
Same read-out and setting: to `CCN1C(=O)N2Cc3cc(OC)cc(OC)c3[C@@H](C)C=C2C12CCN(Cc1cnc3ccccc3c1)CC2` [ER-819837-01] belongs 56 nM.
On to `COc1cc2c(c(OC)c1)C(C)(C)C=C1N(C2)C(=O)NC12CCN(Cc1ccccc1)CC2` [compound 819667], for which, for the setting “Homo sapiens, HEK293, 24 h, Table 2, engineered HEK cells”, the half-inhibitory concentration (IC50) worked out at 250 nM.
Molecule `COc1cc2c(c(OC)c1)[C@H](C)C=C1N(C2)C(=O)N(CCO)C12CCN(Cc1cc(C)cc(C)c1)CC2` (single isomer, unassigned) [ER-819787] showed an IC50 under setting [1] of 170 nM.
Under setting [1], `CCN1C(=O)N2Cc3cc(OC)cc(OC)c3[C@@H](C)C=C2C12CCN(Cc1cccc3[nH]ccc13)CC2` [ER-811300-01] gave a concentration for half-maximal inhibition (IC50) of 35 nM.
On the same count and under the same terms, the value for `CCN1C(=O)N2Cc3cc(OC)cc(OC)c3[C@@H](C)C=C2C12CCN(Cc1cnc[nH]1)CC2` [ER-819780-01] was 200 nM; that for `CCN1C(=O)N2Cc3cc(OC)cc(OC)c3[C@@H](C)C=C2C12CCN(Cc1cccnc1C)CC2` [ER-819832-01] was 57 nM; that for `CCN1C(=O)N2Cc3cc(OC)cc(OC)c3[C@@H](C)C=C2C12CCN(Cc1cccc3c1OCCO3)CC2` [ER-811291-01] was 120 nM.
`CCN1C(=O)N2Cc3cc(OC)cc(OC)c3[C@@H](C)C=C2C12CCN(Cc1c[nH]nc1C)CC2` [ER-819826-01]: half-maximal inhibition under setting [1] (IC50) was put at 67 nM.
Under setting [1], `CCN1C(=O)N2Cc3cc(OC)cc(OC)c3[C@H](C)C=C2C12CCN(Cc1ccc(F)c(OC(F)(F)F)c1)CC2` [ER-819945] displayed an IC50 above 10000 nM.
Same read-out and setting: the value for `CCN1C(=O)N2Cc3cc(OC)cc(OC)c3[C@@H](C)C=C2C12CCN(Cc1c(F)ccc(C)c1F)CC2` [ER-819934] was 100 nM; that for `CCN1C(=O)N2Cc3cc(OC)cc(OC)c3[C@@H](C)C=C2C12CCN(Cc1cc(C)c(F)c(C)c1)CC2` [ER-819931] was 70 nM.
